Data from US7429670B2 (The Trustees of Columbia University in the City of New York, priority 2003, dated 2008).

biological target: T1, human homomeric α1 GlyR (Homo sapiens, UniProt P23415); test: Functional glycine receptor assay (FLIPR Membrane Potential Assay); format: cell-based; set-up: antagonist activity at GlyR (in words): dose or concentration left out as unconfirmed; conditions: 30 uM concentration of test compound
T1 construct: expressed in transfected cells
T1 sequence (P23415 29-457): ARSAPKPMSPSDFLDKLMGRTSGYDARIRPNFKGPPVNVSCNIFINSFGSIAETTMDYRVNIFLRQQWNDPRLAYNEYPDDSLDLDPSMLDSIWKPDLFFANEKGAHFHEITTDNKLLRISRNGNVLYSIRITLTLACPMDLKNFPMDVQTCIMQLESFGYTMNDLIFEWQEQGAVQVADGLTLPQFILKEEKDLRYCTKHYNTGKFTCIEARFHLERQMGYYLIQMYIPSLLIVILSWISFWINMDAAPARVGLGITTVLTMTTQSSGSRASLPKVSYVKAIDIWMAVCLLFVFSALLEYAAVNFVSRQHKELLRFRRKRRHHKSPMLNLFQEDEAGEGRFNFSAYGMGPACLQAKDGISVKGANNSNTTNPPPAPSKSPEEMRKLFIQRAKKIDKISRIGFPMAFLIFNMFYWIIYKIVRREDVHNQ

Row | inhibition of glycine responses | Substance
1 | 39% | 10-Benzyloxy-isoGC-6-benzoate [Compound 17]

same assay, conditions: 100 μM test compound; 100 μM glycine-induced response; α1 GlyR-HEK293 cells; Table 2

Row | Substance | % inhibition
2 | 7-Methylcarbamoyloxy-10-(4-methoxy-benzyloxy)-GC [Compound 44] | NI (Inhibition below 20% is characterized as no inhibition (NI))
3 | 1-tert-Butylcarbamoyloxy-10-benzyloxy-GC [Compound 40] | 42%
4 | 7-(Morpholine-4-carbonyloxy)-10-benzyloxy-GC [Compound 36] | NI (Inhibition below 20% is characterized as no inhibition (NI))
5 | 1-(Piperidine-carbonyloxy)-10-(4-methoxy-benzyloxy)-GC [Compound 52] | NI (Inhibition below 20% is characterized as no inhibition (NI))
6 | 7-Methylcarbamoyloxy-10-benzyloxy-GC [Compound 34] | NI (Inhibition below 20% is characterized as no inhibition (NI))
7 | 1-Methylcarbamoyloxy-10-(4-methoxy-benzyloxy)-GC [Compound 49] | NI (Inhibition below 20% is characterized as no inhibition (NI))
8 | 1-tert-Butylcarbamoyloxy-10-(4-methoxy-benzyloxy)-GC [Compound 50] | 33%
9 | 1-Methylcarbamoyloxy-10-benzyloxy-GC [Compound 39] | NI (Inhibition below 20% is characterized as no inhibition (NI))
10 | 7-tert-Butylcarbamoyloxy-10-benzyloxy-GC [Compound 35] | 29%
11 | 7-(Piperidine-carbonyloxy)-10-benzyloxy-GC [Compound 37] | NI (Inhibition below 20% is characterized as no inhibition (NI))
12 | 1-(Morpholine-4-carbonyloxy)-10-benzyloxy-GC [Compound 41] | NI (Inhibition below 20% is characterized as no inhibition (NI))
13 | 1-(Piperidine-carbonyloxy)-10-benzyloxy-GC [Compound 42] | 31%
14 | 1-(Morpholine-4-carbonyloxy)-10-(4-methoxy-benzyloxy)-GC [Compound 51] | NI (Inhibition below 20% is characterized as no inhibition (NI))
15 | 7-(Piperidine-carbonyloxy)-10-(4-methoxy-benzyloxy)-GC [Compound 47] | 29%
16 | 7-(Morpholine-4-carbonyloxy)-10-(4-methoxy-benzyloxy)-GC [Compound 46] | NI (Inhibition below 20% is characterized as no inhibition (NI))
17 | 7-tert-Butylcarbamoyloxy-10-(4-methoxy-benzyloxy)-GC [Compound 45] | 39%

same assay, conditions: 100 μM test compound; 100 μM glycine-induced response; α1 GlyR-HEK293 cells; Table 3

Row | Substance | % inhibition
18 | 7-tert-Butylcarbamoyloxy-GC [Compound 54] | NI (Inhibition below 20% is characterized as no inhibition (NI))
19 | 1-tert-Butylcarbamoyloxy-GC [Compound 58] | 71%
20 | 7-Methylcarbamoyloxy-GC [Compound 53] | NI (Inhibition below 20% is characterized as no inhibition (NI))
21 | 7-(Piperidine-carbonyloxy)-GC [Compound 56] | 34%
22 | 1-(Morpholine-4-carbonyloxy)-GC [Compound 59] | NI (Inhibition below 20% is characterized as no inhibition (NI))
23 | 1-(Piperidine-carbonyloxy)-GC [Compound 60] | 33%
24 | 7-(Morpholine-4-carbonyloxy)-GC [Compound 55] | 44%
25 | 1-Methylcarbamoyloxy-GC [Compound 57] | 76%

same assay, conditions: 100 μM test compound; 100 μM glycine-induced response; α1 GlyR-HEK293 cells; Table 4

Row | % inhibition | Substance
26 | 52% | 10-(4-Methoxy-benzyloxy)-GC [Compound 24]
27 | 35% | 10-(4-Methoxy-benzyloxy)-GC-7-benzoate [Compound 26]
28 | 51% | 10-(2-Pyridinyl-methoxy)-GC-7-benzoate [Compound 29]
29 | 60% | 10-Benzyloxy-GC-1-benzoate [Compound 23]
30 | 45% | 10-Benzyloxy-GC-7-benzoate [Compound 21]
31 | 75% | 10-(2-Pyridinyl-methoxy)-GC [Compound 25]

Row | Substance | % inhibition
32 | GC-7-benzoate [Compound 30] | NI (Inhibition below 20% is characterized as no inhibition (NI))
33 | GC-1-benzoate [Compound 32] | NI (Inhibition below 20% is characterized as no inhibition (NI))
34 | 10-Benzyloxy-GC [Compound 16] | 59%
35 | 10-(4-Methoxy-benzyloxy)-GC-1-benzoate [Compound 28] | NI (Inhibition below 20% is characterized as no inhibition (NI))

same assay, conditions: 100 μM test compound; response induced by 100 μM glycine; α1 GlyR-HEK293 cells; Table 5

Row | % inhibition | Substance
36 | 42% | 10-Benzyloxy-isoGC-1,6-bisbenzoate [Compound 22]
37 | 21% | 10-Benzyloxy-isoGC-1,6-bisacetate [Compound 19]
38 | 36% | 10-(4-Methoxy-benzyloxy)-isoGC-1,6-bisacetate [Compound 20]
39 | 90% | 10-Benzyloxy-isoGC-6-benzoate [Compound 17]
40 | 49% | 10-(4-Methoxy-benzyloxy)-isoGC-6-benzoate [Compound 27]
41 | 63% | IsoGC-6-benzoate [Compound 31]

same assay, conditions: derivatives as printed

Row | Substance | antagonist activity at GlyR (in words)
42 | GC-7-benzoate [Compound 30] | complete loss in activity
43 | GC-1-benzoate [Compound 32] | complete loss in activity

same assay, conditions: derivatives at a concentration of 100 mM; 100 mM glycine

Row | inhibition of the glycine responses | Substance
44 | ca. 70% | 1-tert-Butylcarbamoyloxy-GC [Compound 58]
45 | 75% | 10-(2-Pyridinyl-methoxy)-GC [Compound 25]
46 | 90% | 10-Benzyloxy-isoGC-6-benzoate [Compound 17]
47 | ca. 70% | 1-Methylcarbamoyloxy-GC [Compound 57]
